Measured values from publication PMC9856672, “SGC-CAMKK2-1: A Chemical Probe for CAMKK2” (Cells, 2023).

Tests used:
GCN2(Kin.Dom.2,S808G) [1] = molecular target: T1, GCN2(Kin.Dom.2,S808G) (Homo sapiens, UniProt Q9P2K8, S808G); test: KINOMEscan 1 μM, GCN2(Kin.Dom.2,S808G); assay type: binding; conditions: 1000 nM; Entrez EIF2AK4; read-out: Percent Control
T1 construct: GCN2(Kin.Dom.2,S808G); purchased Eurofins DiscoverX KINOMEscan
Source text: (§1) Supplement cells-12-00287-s001.zip/File S2. KinomeScan data for the CAMKK2 probe and negative control.xlsx, sheet "SGC-CAMKK2-1" | column: Percent Control

EGFR(G719C) = molecular target: T2, EGFR(G719C) (Homo sapiens, UniProt P00533, G719C); test: KINOMEscan 1 μM, EGFR(G719C); assay type: binding; conditions: 1000 nM; Entrez EGFR; read-out: Percent Control
T2 construct: purchased Eurofins DiscoverX KINOMEscan
Source text: as §1

MYLK = molecular target: T3, MYLK (Homo sapiens, UniProt Q15746); test: KINOMEscan 1 μM, MYLK; assay type: binding; conditions: 1000 nM; Entrez MYLK; read-out: Percent Control
T3 construct: purchased Eurofins DiscoverX KINOMEscan
Source text: as §1

EGFR(L747-T751del,Sins) = test: KINOMEscan 1 μM, EGFR(L747-T751del,Sins); assay type: binding, human; conditions: 1000 nM; Entrez EGFR
Source text: as §1

TNIK = molecular target: T4, TNIK (Homo sapiens, UniProt Q9UKE5); test: KINOMEscan 1 μM, TNIK; assay type: binding; conditions: 1000 nM; Entrez TNIK; read-out: Percent Control
T4 construct: purchased Eurofins DiscoverX KINOMEscan
Source text: as §1

FLT1 = molecular target: T5, FLT1 (Homo sapiens, UniProt P17948); test: KINOMEscan 1 μM, FLT1; assay type: binding; conditions: 1000 nM; Entrez FLT1; read-out: Percent Control
T5 construct: purchased Eurofins DiscoverX KINOMEscan
Source text: as §1

CDKL3 [2] = molecular target: T6, CDKL3 (Homo sapiens, UniProt Q8IVW4); test: KINOMEscan 1 μM, CDKL3; assay type: binding; conditions: 1000 nM; Entrez CDKL3; read-out: Percent Control
T6 construct: purchased Eurofins DiscoverX KINOMEscan
Source text: as §1

TAOK3 = molecular target: T7, TAOK3 (Homo sapiens, UniProt Q9H2K8); test: KINOMEscan 1 μM, TAOK3; assay type: binding; conditions: 1000 nM; Entrez TAOK3; read-out: Percent Control
T7 construct: purchased Eurofins DiscoverX KINOMEscan
Source text: as §1

AURKA = molecular target: T8, AURKA (Homo sapiens, UniProt O14965); test: KINOMEscan 1 μM, AURKA; assay type: binding; conditions: 1000 nM; Entrez AURKA; read-out: Percent Control
T8 construct: purchased Eurofins DiscoverX KINOMEscan
Source text: as §1

EGFR(E746-A750del) = molecular target: T9, EGFR(E746-A750del) (Homo sapiens, UniProt P00533, DEL746-750); test: KINOMEscan 1 μM, EGFR(E746-A750del); assay type: binding; conditions: 1000 nM; Entrez EGFR; read-out: Percent Control
T9 construct: purchased Eurofins DiscoverX KINOMEscan
Source text: as §1

HASPIN = molecular target: T10, HASPIN (Homo sapiens, UniProt Q8TF76); test: KINOMEscan 1 μM, HASPIN; assay type: binding; conditions: 1000 nM; Entrez GSG2; read-out: Percent Control
T10 construct: purchased Eurofins DiscoverX KINOMEscan
Source text: as §1

HCK = molecular target: T11, HCK (Homo sapiens, UniProt P08631); test: KINOMEscan 1 μM, HCK; assay type: binding; conditions: 1000 nM; Entrez HCK; read-out: Percent Control
T11 construct: purchased Eurofins DiscoverX KINOMEscan
Source text: as §1

IKK-beta = molecular target: T12, IKK-beta (Homo sapiens, UniProt O14920); test: KINOMEscan 1 μM, IKK-beta; assay type: binding; conditions: 1000 nM; Entrez IKBKB; read-out: Percent Control
T12 construct: purchased Eurofins DiscoverX KINOMEscan
Source text: as §1

PLK1 = molecular target: T13, PLK1 (Homo sapiens, UniProt P53350); test: DiscoverX KINOMEscan binding assay at 1 μM, PLK1; conditions: Compound Concentration 1000 nM, read-out: Percent Control
T13 construct: purchased Eurofins DiscoverX KINOMEscan
Source text: as §1

S6K1 = molecular target: T14, S6K1 (Homo sapiens, UniProt P23443); test: DiscoverX KINOMEscan binding assay at 1 μM, S6K1; conditions: S6K1 (RPS6KB1); Compound Concentration 1000 nM; read-out: Percent Control
T14 construct: purchased Eurofins DiscoverX KINOMEscan
Source text: as §1

ULK3 = molecular target: T15, ULK3 (Homo sapiens, UniProt Q6PHR2); test: DiscoverX KINOMEscan binding assay at 1 μM, ULK3; conditions: Compound Concentration 1000 nM, read-out: Percent Control
T15 construct: purchased Eurofins DiscoverX KINOMEscan
Source text: as §1

ALK(C1156Y) = molecular target: T16, ALK(C1156Y) (Homo sapiens, UniProt Q9UM73, C1156Y); test: KINOMEscan at 1 μM, ALK(C1156Y); assay type: binding; conditions: 1000 nM, read-out: Percent Control
T16 construct: purchased Eurofins DiscoverX KINOMEscan
Source text: (§2) Supplement cells-12-00287-s001.zip/File S2. KinomeScan data for the CAMKK2 probe and negative control.xlsx, sheet "SGC-CAMKK2-1N" | column: Percent Control

VRK2 = molecular target: T17, VRK2 (Homo sapiens, UniProt Q86Y07); test: KINOMEscan at 1 μM, VRK2; assay type: binding; conditions: 1000 nM, read-out: Percent Control
T17 construct: purchased Eurofins DiscoverX KINOMEscan
Source text: as §2

EPHA1 = molecular target: T18, EPHA1 (Homo sapiens, UniProt P21709); test: KINOMEscan at 1 μM, EPHA1; assay type: binding; conditions: 1000 nM, read-out: Percent Control
T18 construct: purchased Eurofins DiscoverX KINOMEscan
Source text: as §2

CDKL3 [3] = molecular target: T6, CDKL3; test: KINOMEscan at 1 μM, CDKL3; assay type: binding; conditions: 1000 nM, read-out: Percent Control
Source text: as §2

IRAK1 = molecular target: T19, IRAK1 (Homo sapiens, UniProt P51617); test: KINOMEscan at 1 μM, IRAK1; assay type: binding; conditions: 1000 nM, read-out: Percent Control
T19 construct: purchased Eurofins DiscoverX KINOMEscan
Source text: as §2

SGK2 = molecular target: T20, SGK2 (Homo sapiens, UniProt Q9HBY8); test: KINOMEscan at 1 μM, SGK2; assay type: binding; conditions: 1000 nM, read-out: Percent Control
T20 construct: purchased Eurofins DiscoverX KINOMEscan
Source text: as §2

CLK1 = molecular target: T21, CLK1 (Homo sapiens, UniProt P49759); test: KINOMEscan at 1 μM, CLK1; assay type: binding; conditions: 1000 nM, read-out: Percent Control
T21 construct: purchased Eurofins DiscoverX KINOMEscan
Source text: as §2

ZAP70 = molecular target: T22, ZAP70 (Homo sapiens, UniProt P43403); test: KINOMEscan at 1 μM, ZAP70; assay type: binding; conditions: 1000 nM, read-out: Percent Control
T22 construct: purchased Eurofins DiscoverX KINOMEscan
Source text: as §2

[4] = molecular target: T23, RSK2(Kin.Dom.1-N-terminal) (Homo sapiens, UniProt P51812); test: KINOMEscan at 1 μM, RSK2(Kin.Dom.1-N-terminal); assay type: binding; conditions: 1000 nM, read-out: Percent Control
T23 construct: RSK2(Kin.Dom.1-N-terminal); purchased Eurofins DiscoverX KINOMEscan
Source text: as §2

HIPK4 = molecular target: T24, HIPK4 (Homo sapiens, UniProt Q8NE63); test: KINOMEscan at 1 μM, HIPK4; assay type: binding; conditions: 1000 nM, read-out: Percent Control
T24 construct: purchased Eurofins DiscoverX KINOMEscan
Source text: as §2

MEK3 = molecular target: T25, MEK3 (Homo sapiens, UniProt P46734); test: KINOMEscan at 1 μM, MEK3; assay type: binding; conditions: 1000 nM, read-out: Percent Control
T25 construct: purchased Eurofins DiscoverX KINOMEscan
Source text: as §2

LIMK2 = molecular target: T26, LIMK2 (Homo sapiens, UniProt P53671); test: KINOMEscan at 1 μM, LIMK2; assay type: binding; conditions: 1000 nM, read-out: Percent Control
T26 construct: purchased Eurofins DiscoverX KINOMEscan
Source text: as §2

BRK = molecular target: T27, BRK (Homo sapiens, UniProt Q13882); test: KINOMEscan at 1 μM, BRK; assay type: binding; conditions: 1000 nM, read-out: Percent Control
T27 construct: purchased Eurofins DiscoverX KINOMEscan
Source text: as §2

AMPK-alpha1 = molecular target: T28, AMPK-alpha1 (Homo sapiens, UniProt Q13131); test: KINOMEscan at 1 μM, AMPK-alpha1; assay type: binding; conditions: 1000 nM, read-out: Percent Control
T28 construct: purchased Eurofins DiscoverX KINOMEscan
Source text: as §2

DCAMKL3 = molecular target: T29, DCAMKL3 (Homo sapiens, UniProt Q9C098); test: KINOMEscan at 1 μM, DCAMKL3; assay type: binding; conditions: 1000 nM, read-out: Percent Control
T29 construct: purchased Eurofins DiscoverX KINOMEscan
Source text: as §2

GCN2(Kin.Dom.2,S808G) [5] = molecular target: T1, GCN2(Kin.Dom.2,S808G); test: KINOMEscan binding assay at 1 μM, GCN2(Kin.Dom.2,S808G); conditions: Compound Concentration 1000 nM; read-out: Percent Control
Source text: as §2

p38-gamma = molecular target: T30, p38-gamma (Homo sapiens, UniProt P53778); test: KINOMEscan binding assay at 1 μM, p38-gamma; conditions: Compound Concentration 1000 nM; read-out: Percent Control
T30 construct: purchased Eurofins DiscoverX KINOMEscan
Source text: as §2

T1 sequence (Q9P2K8 590-1001 S808G limits assumed): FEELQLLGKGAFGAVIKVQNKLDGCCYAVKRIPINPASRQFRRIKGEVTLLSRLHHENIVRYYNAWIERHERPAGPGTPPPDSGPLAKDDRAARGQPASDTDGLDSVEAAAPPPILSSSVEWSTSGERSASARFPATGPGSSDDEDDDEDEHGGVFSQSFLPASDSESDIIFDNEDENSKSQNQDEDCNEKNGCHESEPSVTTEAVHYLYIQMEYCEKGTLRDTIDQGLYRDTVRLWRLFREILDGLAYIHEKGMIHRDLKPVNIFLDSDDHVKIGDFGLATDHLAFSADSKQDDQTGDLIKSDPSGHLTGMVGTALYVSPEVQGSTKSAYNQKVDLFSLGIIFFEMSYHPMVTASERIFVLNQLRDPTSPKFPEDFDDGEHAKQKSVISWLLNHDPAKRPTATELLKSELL
T6 sequence (Q8IVW4 whole entry): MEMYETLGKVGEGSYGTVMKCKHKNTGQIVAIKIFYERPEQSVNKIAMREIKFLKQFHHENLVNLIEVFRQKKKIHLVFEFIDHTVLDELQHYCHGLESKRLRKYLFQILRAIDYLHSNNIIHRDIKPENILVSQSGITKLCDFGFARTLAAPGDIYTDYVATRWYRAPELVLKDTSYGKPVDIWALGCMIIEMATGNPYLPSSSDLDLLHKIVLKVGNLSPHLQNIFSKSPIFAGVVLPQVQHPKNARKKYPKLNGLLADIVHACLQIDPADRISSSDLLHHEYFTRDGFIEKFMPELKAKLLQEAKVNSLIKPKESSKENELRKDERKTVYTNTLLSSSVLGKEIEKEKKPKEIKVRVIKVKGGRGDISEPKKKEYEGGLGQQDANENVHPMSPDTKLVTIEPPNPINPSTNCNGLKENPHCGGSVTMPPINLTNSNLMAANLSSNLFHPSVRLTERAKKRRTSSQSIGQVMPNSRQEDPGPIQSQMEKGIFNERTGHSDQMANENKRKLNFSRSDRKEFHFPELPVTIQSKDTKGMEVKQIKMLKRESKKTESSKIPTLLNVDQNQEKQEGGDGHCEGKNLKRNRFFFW
T9 sequence (P00533 with tags, fused parts or gaps DEL746-750 limits assumed): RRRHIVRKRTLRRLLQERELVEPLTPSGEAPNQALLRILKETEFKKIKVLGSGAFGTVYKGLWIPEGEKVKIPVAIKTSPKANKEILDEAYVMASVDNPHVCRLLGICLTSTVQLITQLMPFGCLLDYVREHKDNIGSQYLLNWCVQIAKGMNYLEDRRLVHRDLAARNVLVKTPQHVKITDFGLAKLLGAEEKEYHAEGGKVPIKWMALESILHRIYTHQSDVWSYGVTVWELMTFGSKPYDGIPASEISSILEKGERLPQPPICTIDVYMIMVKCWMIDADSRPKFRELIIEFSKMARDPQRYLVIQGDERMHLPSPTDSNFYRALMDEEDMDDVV
T27 sequence (Q13882 whole entry): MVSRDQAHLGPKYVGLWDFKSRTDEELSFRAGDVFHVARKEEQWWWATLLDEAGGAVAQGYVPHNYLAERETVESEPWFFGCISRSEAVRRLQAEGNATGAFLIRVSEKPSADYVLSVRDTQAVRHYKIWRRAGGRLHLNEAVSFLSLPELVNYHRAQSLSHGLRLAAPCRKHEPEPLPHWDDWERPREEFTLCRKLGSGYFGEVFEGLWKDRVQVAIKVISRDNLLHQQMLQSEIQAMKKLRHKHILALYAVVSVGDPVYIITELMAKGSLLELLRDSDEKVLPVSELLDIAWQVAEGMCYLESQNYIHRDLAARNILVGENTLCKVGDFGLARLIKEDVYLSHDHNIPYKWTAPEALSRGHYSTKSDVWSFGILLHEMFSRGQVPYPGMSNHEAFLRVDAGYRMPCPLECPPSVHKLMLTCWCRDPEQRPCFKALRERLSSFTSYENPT
T19 sequence (P51617 whole entry): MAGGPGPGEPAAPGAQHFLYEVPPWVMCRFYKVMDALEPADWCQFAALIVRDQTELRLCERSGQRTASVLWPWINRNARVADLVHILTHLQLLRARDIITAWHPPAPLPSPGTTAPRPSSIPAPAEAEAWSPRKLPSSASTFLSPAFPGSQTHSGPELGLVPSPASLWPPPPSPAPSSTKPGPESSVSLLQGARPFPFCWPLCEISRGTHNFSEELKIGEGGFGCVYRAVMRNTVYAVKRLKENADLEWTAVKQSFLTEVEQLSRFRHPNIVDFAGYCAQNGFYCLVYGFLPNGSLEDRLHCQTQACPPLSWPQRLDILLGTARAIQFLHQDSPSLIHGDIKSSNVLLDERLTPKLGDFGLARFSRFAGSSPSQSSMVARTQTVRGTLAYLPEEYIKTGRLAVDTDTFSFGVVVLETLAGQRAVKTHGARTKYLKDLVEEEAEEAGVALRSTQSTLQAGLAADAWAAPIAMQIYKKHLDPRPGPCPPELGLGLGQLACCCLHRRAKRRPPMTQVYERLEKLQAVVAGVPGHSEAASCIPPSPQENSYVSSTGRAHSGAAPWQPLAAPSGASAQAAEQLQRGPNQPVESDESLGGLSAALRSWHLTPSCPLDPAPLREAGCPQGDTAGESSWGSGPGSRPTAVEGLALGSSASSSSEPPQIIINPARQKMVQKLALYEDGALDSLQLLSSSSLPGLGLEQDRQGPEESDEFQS
T12 sequence (O14920 whole entry): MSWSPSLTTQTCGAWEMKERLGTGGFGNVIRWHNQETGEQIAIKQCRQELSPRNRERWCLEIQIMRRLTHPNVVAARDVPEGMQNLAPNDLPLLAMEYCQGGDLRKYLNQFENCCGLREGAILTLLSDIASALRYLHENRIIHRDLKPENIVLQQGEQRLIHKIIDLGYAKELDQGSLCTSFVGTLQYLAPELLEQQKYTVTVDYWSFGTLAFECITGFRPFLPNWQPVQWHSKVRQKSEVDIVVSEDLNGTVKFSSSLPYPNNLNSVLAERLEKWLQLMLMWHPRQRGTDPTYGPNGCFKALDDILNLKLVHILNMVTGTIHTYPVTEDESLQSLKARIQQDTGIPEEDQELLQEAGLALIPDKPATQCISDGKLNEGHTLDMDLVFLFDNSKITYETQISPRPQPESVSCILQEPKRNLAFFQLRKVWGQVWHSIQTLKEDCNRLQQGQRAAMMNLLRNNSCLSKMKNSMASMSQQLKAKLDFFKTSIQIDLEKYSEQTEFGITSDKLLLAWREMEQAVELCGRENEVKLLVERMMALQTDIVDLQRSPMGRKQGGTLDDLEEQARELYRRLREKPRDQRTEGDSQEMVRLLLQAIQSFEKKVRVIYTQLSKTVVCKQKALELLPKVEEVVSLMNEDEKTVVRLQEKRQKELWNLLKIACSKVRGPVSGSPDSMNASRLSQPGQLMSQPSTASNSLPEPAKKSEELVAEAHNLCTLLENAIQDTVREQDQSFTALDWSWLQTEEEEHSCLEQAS
T22 sequence (P43403 whole entry): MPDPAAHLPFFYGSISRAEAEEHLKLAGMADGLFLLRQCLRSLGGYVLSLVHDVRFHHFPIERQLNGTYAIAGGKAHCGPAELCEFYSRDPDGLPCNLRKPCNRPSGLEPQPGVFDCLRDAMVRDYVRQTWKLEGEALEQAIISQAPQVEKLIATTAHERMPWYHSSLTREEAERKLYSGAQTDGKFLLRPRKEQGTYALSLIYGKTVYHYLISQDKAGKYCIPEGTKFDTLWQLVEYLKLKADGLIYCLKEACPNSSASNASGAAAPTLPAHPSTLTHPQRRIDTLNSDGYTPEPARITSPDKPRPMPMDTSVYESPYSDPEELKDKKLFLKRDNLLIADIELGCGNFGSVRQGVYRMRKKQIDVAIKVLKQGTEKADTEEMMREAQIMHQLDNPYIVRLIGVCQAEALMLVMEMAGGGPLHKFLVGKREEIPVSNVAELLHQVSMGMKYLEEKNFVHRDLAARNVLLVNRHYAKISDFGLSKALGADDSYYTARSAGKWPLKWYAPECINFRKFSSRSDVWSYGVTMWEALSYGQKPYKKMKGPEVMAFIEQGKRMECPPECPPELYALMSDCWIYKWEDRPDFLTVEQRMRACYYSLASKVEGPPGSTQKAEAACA
T17 sequence (Q86Y07 whole entry): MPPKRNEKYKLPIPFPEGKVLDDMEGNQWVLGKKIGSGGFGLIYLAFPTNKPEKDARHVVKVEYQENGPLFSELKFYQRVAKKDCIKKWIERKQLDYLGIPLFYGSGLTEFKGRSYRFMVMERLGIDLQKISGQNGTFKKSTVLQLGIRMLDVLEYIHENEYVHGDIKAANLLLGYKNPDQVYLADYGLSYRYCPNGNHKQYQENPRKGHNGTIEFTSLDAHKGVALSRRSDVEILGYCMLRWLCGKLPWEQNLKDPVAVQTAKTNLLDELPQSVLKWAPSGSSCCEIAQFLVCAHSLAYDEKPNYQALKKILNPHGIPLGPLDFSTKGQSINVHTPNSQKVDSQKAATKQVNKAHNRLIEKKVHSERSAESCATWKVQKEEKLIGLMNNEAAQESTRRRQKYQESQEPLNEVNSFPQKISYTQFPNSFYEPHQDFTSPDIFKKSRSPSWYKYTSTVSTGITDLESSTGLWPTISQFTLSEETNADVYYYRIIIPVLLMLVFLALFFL
T13 sequence (P53350 whole entry): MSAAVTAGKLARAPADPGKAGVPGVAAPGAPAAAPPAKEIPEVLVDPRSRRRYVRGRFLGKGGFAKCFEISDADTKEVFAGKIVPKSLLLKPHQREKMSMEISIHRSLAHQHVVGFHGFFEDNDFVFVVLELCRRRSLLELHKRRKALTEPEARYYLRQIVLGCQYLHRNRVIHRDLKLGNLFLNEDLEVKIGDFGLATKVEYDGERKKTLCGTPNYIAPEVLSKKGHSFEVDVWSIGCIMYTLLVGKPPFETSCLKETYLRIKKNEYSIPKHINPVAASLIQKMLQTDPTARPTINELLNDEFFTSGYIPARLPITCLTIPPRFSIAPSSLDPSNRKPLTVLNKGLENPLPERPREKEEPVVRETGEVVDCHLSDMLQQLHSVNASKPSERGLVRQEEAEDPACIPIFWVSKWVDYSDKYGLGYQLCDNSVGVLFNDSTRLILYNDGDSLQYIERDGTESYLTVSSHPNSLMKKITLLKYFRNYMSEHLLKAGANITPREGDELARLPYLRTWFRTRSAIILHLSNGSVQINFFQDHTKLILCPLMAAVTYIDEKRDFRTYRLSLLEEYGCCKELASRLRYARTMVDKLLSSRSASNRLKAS

Cc1cccc(-c2cnc3occ(-c4ccc(C(=O)O)c(C5CCCC5)c4)c3c2)c1 [SGC-CAMKK2-1 (YL-36)]
remaining binding at 1 µM (GCN2(Kin.Dom.2,S808G) [1]): 42% | remaining binding at 1 µM (EGFR(G719C)): 55% | remaining binding at 1 µM (MYLK): 76% | Percent Control (EGFR(L747-T751del,Sins)): 85% | remaining binding at 1 µM (TNIK): 92% | remaining binding at 1 µM (FLT1): 93% | remaining binding at 1 µM (CDKL3 [2]): 96% | remaining binding at 1 µM (TAOK3): 97% | remaining binding at 1 µM (AURKA): 100% | remaining binding at 1 µM (EGFR(E746-A750del)): 100% | remaining binding at 1 µM (HASPIN): 100% | remaining binding at 1 µM (HCK): 100% | remaining binding at 1 µM (IKK-beta): 100% | remaining binding at 1 µM (PLK1): 100% | remaining binding at 1 µM (S6K1): 100% | remaining binding at 1 µM (ULK3): 100%

O=C(O)c1ccc(-c2coc3ncc(-c4ccccc4)cc23)cc1Cl [SGC-CAMKK2-1N (UNC-YL-83)]
remaining binding at 1 µM (ALK(C1156Y)): 0% | remaining binding at 1 µM (VRK2): 58% | remaining binding at 1 µM (EPHA1): 61% | remaining binding at 1 µM (CDKL3 [3]): 63% | remaining binding at 1 µM (IRAK1): 68% | remaining binding at 1 µM (SGK2): 73% | remaining binding at 1 µM (CLK1): 79% | remaining binding at 1 µM (ZAP70): 85% | remaining binding at 1 µM [4]: 88% | remaining binding at 1 µM (HIPK4): 89% | remaining binding at 1 µM (MEK3): 89% | remaining binding at 1 µM (LIMK2): 92% | remaining binding at 1 µM (BRK): 96% | remaining binding at 1 µM (AMPK-alpha1): 100% | remaining binding at 1 µM (DCAMKL3): 100% | remaining binding at 1 µM (GCN2(Kin.Dom.2,S808G) [5]): 100% | remaining binding at 1 µM (p38-gamma): 100%
